# Results as given in ChEMBL document CHEMBL2331167, “Inhibitory effect of novel somatostatin peptide analogues on human cancer cell growth based on the selective inhibition of DNA polymerase β” (Bioorg Med Chem, 2013).
# Key:
# HCT-116 [1] = assay: Cytotoxicity against MMS-induced p53 -/- human HCT116 cells assessed as reduction in clonogenic survival at 13.7 uM incubated for 24 hrs by WST-1 assay relative to control; assay type: functional
# HCT-116 [2] = assay: Cytotoxicity against p53 -/- human HCT116 cells assessed as growth inhibition incubated for 24 hrs by WST-1 assay; assay type: functional; details: HCT-116, 24 h, read-out: LD50 (the source's name)
# DNA polymerase iota = molecular target: T1, DNA polymerase iota (Homo sapiens, UniProt Q9UNA4); assay: Inhibition of human DNA polymerase iota using poly(dA)/oligo(dT)18 (A/T, 2/1)/dTTP DNA template-primer substrate measured at 37 degC for 60 mins
# T1 sequence (Q9UNA4 whole entry): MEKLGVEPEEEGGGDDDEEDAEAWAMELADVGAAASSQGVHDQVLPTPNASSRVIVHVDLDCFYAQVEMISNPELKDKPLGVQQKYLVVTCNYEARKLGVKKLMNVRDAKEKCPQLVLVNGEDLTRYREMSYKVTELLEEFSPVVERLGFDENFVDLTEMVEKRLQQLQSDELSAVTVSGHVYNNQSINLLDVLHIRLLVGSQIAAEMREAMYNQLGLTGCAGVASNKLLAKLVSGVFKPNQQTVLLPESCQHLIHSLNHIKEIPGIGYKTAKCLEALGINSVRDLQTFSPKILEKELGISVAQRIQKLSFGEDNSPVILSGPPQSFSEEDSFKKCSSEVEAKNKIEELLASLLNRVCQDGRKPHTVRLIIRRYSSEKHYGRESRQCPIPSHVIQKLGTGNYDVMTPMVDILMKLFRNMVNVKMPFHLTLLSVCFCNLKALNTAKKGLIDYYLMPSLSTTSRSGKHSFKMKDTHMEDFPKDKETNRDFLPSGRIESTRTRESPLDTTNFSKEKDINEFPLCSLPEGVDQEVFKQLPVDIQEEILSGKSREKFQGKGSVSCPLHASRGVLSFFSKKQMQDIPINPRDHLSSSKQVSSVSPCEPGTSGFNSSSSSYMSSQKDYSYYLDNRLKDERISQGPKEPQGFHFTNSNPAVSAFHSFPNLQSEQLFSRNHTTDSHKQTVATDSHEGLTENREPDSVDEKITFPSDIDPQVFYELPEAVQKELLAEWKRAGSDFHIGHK
# DNA polymerase eta = molecular target: T2, DNA polymerase eta (Homo sapiens, UniProt Q9Y253); assay: Inhibition of human DNA polymerase eta using poly(dA)/oligo(dT)18 (A/T, 2/1)/dTTP DNA template-primer substrate measured at 37 degC for 60 mins
# T2 sequence (Q9Y253 whole entry): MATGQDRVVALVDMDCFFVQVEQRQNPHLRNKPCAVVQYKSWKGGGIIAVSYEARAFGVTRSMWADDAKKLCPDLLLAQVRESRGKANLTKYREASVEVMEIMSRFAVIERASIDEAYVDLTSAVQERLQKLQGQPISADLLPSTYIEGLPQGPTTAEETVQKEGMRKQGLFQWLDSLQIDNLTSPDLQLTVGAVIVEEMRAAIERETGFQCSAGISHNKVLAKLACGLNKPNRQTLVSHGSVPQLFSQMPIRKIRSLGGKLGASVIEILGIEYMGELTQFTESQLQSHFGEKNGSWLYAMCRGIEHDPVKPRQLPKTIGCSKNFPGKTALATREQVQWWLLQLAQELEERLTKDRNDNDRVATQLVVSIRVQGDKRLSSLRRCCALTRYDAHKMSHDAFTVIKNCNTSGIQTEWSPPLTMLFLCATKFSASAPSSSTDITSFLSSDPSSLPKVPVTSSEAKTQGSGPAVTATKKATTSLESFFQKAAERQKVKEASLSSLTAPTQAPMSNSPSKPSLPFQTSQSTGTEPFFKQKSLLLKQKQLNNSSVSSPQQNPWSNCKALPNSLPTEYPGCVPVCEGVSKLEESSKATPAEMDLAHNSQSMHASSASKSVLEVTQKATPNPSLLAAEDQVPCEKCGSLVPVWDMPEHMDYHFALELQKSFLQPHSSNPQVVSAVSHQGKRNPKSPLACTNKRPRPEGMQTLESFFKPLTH
# [3] = molecular target: DNA nucleotidylexotransferase (Bos taurus, UniProt P06526); assay: Inhibition of calf TdT polymerase measured at 37 degC for 60 mins
# Sequence of DNA nucleotidylexotransferase (P06526 whole entry): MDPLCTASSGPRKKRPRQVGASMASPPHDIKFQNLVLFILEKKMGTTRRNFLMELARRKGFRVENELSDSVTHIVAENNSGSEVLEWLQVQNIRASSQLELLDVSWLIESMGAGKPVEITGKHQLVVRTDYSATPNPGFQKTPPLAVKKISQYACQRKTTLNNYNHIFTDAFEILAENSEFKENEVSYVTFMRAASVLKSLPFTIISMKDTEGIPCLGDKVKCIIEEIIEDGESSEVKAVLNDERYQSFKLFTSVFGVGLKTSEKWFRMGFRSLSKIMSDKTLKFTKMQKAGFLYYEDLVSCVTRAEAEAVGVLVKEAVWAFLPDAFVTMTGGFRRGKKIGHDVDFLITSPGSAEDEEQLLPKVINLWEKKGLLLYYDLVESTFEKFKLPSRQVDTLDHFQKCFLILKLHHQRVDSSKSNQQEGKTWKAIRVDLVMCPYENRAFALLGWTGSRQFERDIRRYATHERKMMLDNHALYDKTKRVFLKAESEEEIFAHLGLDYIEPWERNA
# [4] = molecular target: DNA-directed DNA/RNA polymerase mu (Homo sapiens, UniProt Q9NP87); assay: Inhibition of human DNA polymerase mu using poly(dA)/oligo(dT)18 (A/T, 2/1)/dTTP DNA template-primer substrate measured at 37 degC for 60 mins
# Sequence of DNA-directed DNA/RNA polymerase mu (Q9NP87 whole entry): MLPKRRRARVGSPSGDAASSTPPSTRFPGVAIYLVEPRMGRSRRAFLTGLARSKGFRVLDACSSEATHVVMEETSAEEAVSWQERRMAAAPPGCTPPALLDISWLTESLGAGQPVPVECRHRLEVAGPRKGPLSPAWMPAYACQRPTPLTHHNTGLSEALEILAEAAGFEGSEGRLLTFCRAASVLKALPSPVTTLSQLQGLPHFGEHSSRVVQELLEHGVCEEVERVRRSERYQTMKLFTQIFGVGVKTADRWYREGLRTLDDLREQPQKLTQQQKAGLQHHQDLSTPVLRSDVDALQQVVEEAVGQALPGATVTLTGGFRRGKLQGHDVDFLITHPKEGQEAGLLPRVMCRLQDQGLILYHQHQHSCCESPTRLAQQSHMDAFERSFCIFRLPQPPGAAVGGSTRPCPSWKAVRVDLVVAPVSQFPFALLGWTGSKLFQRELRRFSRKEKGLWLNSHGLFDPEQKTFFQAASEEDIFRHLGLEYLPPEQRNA
# [5] = molecular target: T3, DNA polymerase delta catalytic subunit (Homo sapiens, UniProt P28340); assay: Inhibition of human DNA polymerase delta using poly(dA)/oligo(dT)18 (A/T, 2/1)/dTTP DNA template-primer substrate measured at 37 degC for 60 mins
# T3 sequence (P28340 whole entry): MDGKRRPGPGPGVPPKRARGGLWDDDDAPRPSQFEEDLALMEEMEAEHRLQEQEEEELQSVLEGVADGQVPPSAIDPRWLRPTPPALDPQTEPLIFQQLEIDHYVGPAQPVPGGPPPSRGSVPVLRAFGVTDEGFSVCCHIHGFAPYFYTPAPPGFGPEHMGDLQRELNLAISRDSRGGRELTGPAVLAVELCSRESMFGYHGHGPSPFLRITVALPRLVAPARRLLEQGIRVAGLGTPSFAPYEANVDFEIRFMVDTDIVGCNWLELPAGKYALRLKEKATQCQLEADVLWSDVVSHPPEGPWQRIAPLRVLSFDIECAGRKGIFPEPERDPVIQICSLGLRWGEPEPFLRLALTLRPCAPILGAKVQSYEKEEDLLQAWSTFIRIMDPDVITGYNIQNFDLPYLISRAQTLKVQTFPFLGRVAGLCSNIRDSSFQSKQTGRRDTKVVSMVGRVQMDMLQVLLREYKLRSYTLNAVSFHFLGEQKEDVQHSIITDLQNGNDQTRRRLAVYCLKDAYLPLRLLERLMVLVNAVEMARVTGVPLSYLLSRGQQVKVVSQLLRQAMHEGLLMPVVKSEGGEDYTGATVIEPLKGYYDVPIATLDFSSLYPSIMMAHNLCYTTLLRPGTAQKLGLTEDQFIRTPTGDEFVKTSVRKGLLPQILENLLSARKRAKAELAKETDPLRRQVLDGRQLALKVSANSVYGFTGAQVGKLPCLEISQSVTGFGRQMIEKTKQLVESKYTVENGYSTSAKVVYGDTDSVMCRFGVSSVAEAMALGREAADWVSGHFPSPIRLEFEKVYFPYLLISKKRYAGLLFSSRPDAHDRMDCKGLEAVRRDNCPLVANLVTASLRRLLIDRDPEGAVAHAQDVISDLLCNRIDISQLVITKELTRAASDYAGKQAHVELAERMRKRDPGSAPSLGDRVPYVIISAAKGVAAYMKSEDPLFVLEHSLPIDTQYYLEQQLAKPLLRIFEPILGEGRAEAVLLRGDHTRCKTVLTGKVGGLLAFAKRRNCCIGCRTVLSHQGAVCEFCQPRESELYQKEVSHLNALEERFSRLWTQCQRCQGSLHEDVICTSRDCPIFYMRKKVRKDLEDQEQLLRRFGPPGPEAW
structure (smiles),measurement,setting,value
CC[C@H](C)[C@H](NC(=O)[C@H](Cc1ccc(O)cc1)NC(=O)OC(C)(C)C)C(=O)Nc1cccc2ccccc12,fold change (FC),HCT-116 [1],25
same,CC50,HCT-116 [2],13.7 µM
same,IC50,DNA polymerase iota,> 200 µM
same,IC50,DNA polymerase eta,> 200 µM
same,IC50,[3],> 200 µM
same,IC50,[4],> 200 µM
same,IC50,[5],> 200 µM
